Test: Solubility analyses in simulated intestinal fluid (HPLC of supernatant; solid form by XRPD)
Assay type: physicochemical
Conditions: simulated intestinal fluid (pH 6.8); for XRPD (solid form): room temp.; for C, mg/mL Control: room temperature, VX-950 equivalents
Protocol: An aliquot of the sample was placed in a tube and then an aqueous medium was added. At set time points, an aliquot of supernatant was withdrawn, filtered through 0.45 PTFE micron filter (Millex, LCR, Millipore) and processed for high performance liquid chromatography (HPLC) analysis (Agilent 1100; Palo Alto, Calif., USA). The system was equipped with an autosampler set at 25° C. For the sample handling, an aliquot of the sample was diluted with acetonitrile at 1 to 1 by v/v ratio. The samples were run isocratically with the detector set at 270 nm. The column was XTerra® Phenyl column 150 mm×4.6 mm, 3.5 μm Particle Size (P/N 186001144) (Waters, Milford, Mass., USA). The mobile phase was potassium phosphate buffer (10 mM, pH=7.0):methanol at 60:40 (v/v) ratio. The run was done at the flow-rate of 1 mL/min and was completed within 15 min.

Q: Which “XRPD (solid form)” value (24 hours) does the source give for CCC[C@H](NC(=O)[C@@H]1[C@H]2CCC[C@H]2CN1C(=O)[C@@H](NC(=O)[C@@H](NC(=O)c1cnccn1)C1CCCCC1)C(C)(C)C)C(=O)C(=O)NC1CC1 [VX-950 alone] here?
A: The value was “Crystallizes by 24 hour”.

Q: And the “XRPD (solid form)” value (up to 2 hours)?
A: Its value is “Amorphous (up to 2 hours”.

Q: And the “C, mg/mL Control” value (24 hour)?
A: The value was “Not”.

Q: What about the “C, mg/mL Control” value (line with XRPD 'by about 4 hours') of the same compound?
A: The value was 0.0183 mg/mL.

Q: What about the “C, mg/mL Control” value (line with XRPD 'up to 2 hours') of the same compound?
A: The value was 0.025 mg/mL.
